The supplement of paper PMC11061612

Key:
[1] = compound: NC1(c2ccc(-c3nc4ccn5c(=O)[nH]nc5c4cc3-c3ccccc3)cc2)CCC1 [MK-2206]; conditions: max 10 µM
Procedure, shortened: (§1)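 After 24 hours at 37°C and 5% CO2 in 1536-well plates holding 7.5 μl of DMEM/F12 or RPMI with 10% FBS, cancer cell lines were dosed for 72 hours, with final DMSO typically 0.2%. Viability came from CellTiter-Glo 2.0 luminescence, scaled between the means of blank wells and DMSO wells. A non-linear mixed effects model fitted a two-parameter logistic curve to each dose response to give the single-agent IC50.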

[2] = compound: Cn1cnc2c(F)c(Nc3ccc(Br)cc3Cl)c(C(=O)NOCCO)cc21 [Selumetinib]; conditions: max 10 µM
Procedure, shortened: as §1

[3] = compound: C1CN(CCC1(C(=O)N[C@@H](CCO)C2=CC=C(C=C2)Cl)N)C3=NC=NC4=C3C=CN4 [AZD5363]; conditions: max 10 µM
Procedure, shortened: as §1

[4] = compound: COc1cc(Nc2ncc3c(n2)-c2ccc(Cl)cc2C(c2c(F)cccc2OC)=NC3)ccc1C(=O)O [Alisertib]; conditions: max 10 µM
Procedure, shortened: as §1

[5] = compound: C[C@@H]1COCCN1C2=NC(=NC(=C2)C3(CC3)[S@](=N)(=O)C)C4=C5C=CNC5=NC=C4 [AZD6738]; conditions: max 10 µM
Procedure, shortened: as §1

[6] = compound: O=C(Nc1ccc2[nH]nc(-c3ccncc3)c2c1)[C@@H]1CCN(CC(=O)N2CCN(c3ccc(-c4ncccn4)cc3)CC2)C1; conditions: max 5 µM
Procedure, shortened: as §1

[7] = compound: CC1=CN2[C@@H](C1)C=NC3=CC(=C(C=C3C2=O)OC)OCCCCCOC4=C(C=C5C(=C4)N=C[C@@H]6CC(=CN6C5=O)C)OC [SG3199]; conditions: max 0.001 µM
Procedure, shortened: as §1

[8] = compound: CN(CC[C@H](CSC1=CC=CC=C1)NC2=C(C=C(C=C2)S(=O)(=O)NC(=O)C3=CC=C(C=C3)N4CCC(CC4)[C@H](C5=CC=CC=C5C6=CC=C(C=C6)Cl)O)S(=O)(=O)C(F)(F)F)CCO [AZD4320]; conditions: max 1 µM
Procedure, shortened: as §1

[9] = compound: CS(=O)(=O)CCNCc1ccc(-c2ccc3ncnc(Nc4ccc(OCc5cccc(F)c5)c(Cl)c4)c3c2)o1 [Lapatinib]; conditions: max 10 µM
Procedure, shortened: as §1

[10] = compound: O=C(c1cc(Cc2n[nH]c(=O)c3ccccc23)ccc1F)N1CCN(C(=O)C2CC2)CC1 [Olaparib]; conditions: max 10 µM
Procedure, shortened: as §1

[11] = compound: O=c1[nH]cc(F)c(=O)[nH]1 [5-Fluorouracil]; conditions: max 20 µM
Procedure, shortened: as §1

[12] = compound: C1CC(C1)(C(=O)[O-])C(=O)[O-].N.N.[Pt+2] [Carboplatin]; conditions: max 10 µM
Procedure, shortened: as §1

[13] = compound: CC(=O)O[C@H]1C(=O)[C@@]2(C)[C@H]([C@H](OC(=O)c3ccccc3)[C@]3(O)C[C@H](OC(=O)[C@H](O)[C@@H](NC(=O)c4ccccc4)c4ccccc4)C(C)=C1C3(C)C)[C@]1(OC(C)=O)CO[C@@H]1C[C@@H]2O [Paclitaxel]; conditions: max 3 µM
Procedure, shortened: as §1

[14] = compound: C=CCn1c(=O)c2cnc(Nc3ccc(N4CCN(C)CC4)cc3)nc2n1-c1cccc(C(C)(C)O)n1 [AZD1775]; conditions: max 3 µM
Procedure, shortened: as §1

[15] = compound: Nc1ccn([C@@H]2O[C@H](CO)[C@@H](O)C2(F)F)c(=O)n1 [Gemcitabine]; conditions: max 0.3 µM
Procedure, shortened: as §1

[16] = compound: Cc1nc(-c2cn3c(n2)-c2ccc(-c4cnn(C(C)(C)C(N)=O)c4)cc2OCC3)n(C(C)C)n1 [Taselisib]; conditions: max 10 µM
Procedure, shortened: as §1

[17] = compound: CC1(C)CCC(CN2CCN(c3ccc(C(=O)NS(=O)(=O)c4ccc(NCC5CCOCC5)c([N+](=O)[O-])c4)c(Oc4cnc5[nH]ccc5c4)c3)CC2)=C(c2ccc(Cl)cc2)C1 [Venetoclax]; conditions: max 1 µM
Procedure, shortened: as §1

[18] = compound: COc1cc2ncnc(Nc3ccc(F)c(Cl)c3)c2cc1OCCCN1CCOCC1 [Gefitinib]; conditions: max 10 µM
Procedure, shortened: as §1

[19] = compound: Cc1cc2ncnn2cc1Nc1ncc2c(n1)n(C1CCOCC1)c(=O)n2C [AZD7648]; conditions: max 10 µM
Procedure, shortened: as §1

[20] = compound: CC(=O)c1c(C)c2cnc(Nc3ccc(N4CCNCC4)cn3)nc2n(C2CCCC2)c1=O [Palbociclib]; conditions: max 10 µM
Procedure, shortened: as §1

[21] = compound: C[C@@H](Oc1cc(-c2cnn(C3CCNCC3)c2)cnc1N)c1c(Cl)ccc(F)c1Cl [Crizotinib]; conditions: max 10 µM
Procedure, shortened: as §1

[22] = compound: CC(C)n1c(=O)n(C)c2cnc3cc(F)c(-c4ccc(OCCCN5CCCCC5)nc4)cc3c21 [AZD1390]; conditions: max 0.3 µM
Procedure, shortened: as §1

[23] = compound: C[C@@H](c1ccc2nccn2c1)n1nnc2ncc(-c3cnn(C)c3)nc21 [Savolitinib]; conditions: max 1 µM
Procedure, shortened: as §1

[24] = compound: C[C@@H](Nc1cc(F)cc(F)c1)c1cc(C(=O)N(C)C)cc2c(=O)cc(N3CCOCC3)oc12 [AZD8186]; conditions: max 10 µM
Procedure, shortened: as §1

[25] = compound: COc1nnc2ccc(N3CCC(c4ccc(OCCN5CCN(C)C(=O)[C@H]5C)cc4)CC3)nn12 [AZD5153]; conditions: max 1 µM
Procedure, shortened: as §1

[26] = compound: COc1cc([C@@H]2c3cc4c(cc3[C@@H](O[C@@H]3O[C@@H]5CO[C@@H](C)O[C@H]5[C@H](O)[C@H]3O)[C@H]3COC(=O)[C@H]23)OCO4)cc(OC)c1O [Etoposide]; conditions: max 10 µM
Procedure, shortened: as §1

[27] = compound: N#Cc1cnc(Nc2cc(NC[C@H]3CNCCO3)c(C(F)(F)F)cn2)cn1 [SRA737]; conditions: max 10 µM
Procedure, shortened: as §1

[28] = compound: COc1cccc(OCCCN)c1-c1cc(Nc2cnc(C#N)cn2)n[nH]1 [Prexasertib]; conditions: max 1 µM
Procedure, shortened: as §1

[29] = compound: CCc1c2c(nc3ccc(O)cc13)-c1cc3c(c(=O)n1C2)COC(=O)[C@]3(O)CC [SN-38]; conditions: max 0.3 µM
Procedure, shortened: as §1

[30] = compound: Cc1c2c(nn1C)CSCc1cc(n(C)n1)CSc1cc(c3ccccc3c1)OCCCc1c(C(=O)O)n(C)c3c-2c(Cl)ccc13 [AZD5991]; conditions: max 1 µM
Procedure, shortened: as §1

[31] = compound: COc1cccc2c1C(=O)c1c(O)c3c(c(O)c1C2=O)C[C@@](O)(C(=O)CO)C[C@@H]3O[C@H]1C[C@H](N)[C@H](O)[C@H](C)O1 [Doxorubicin]; conditions: max 1 µM
Procedure, shortened: as §1

[32] = compound: CN(C)CCCOc1ccc(-c2ccc3ncc4c(c3c2)n(C2CCOCC2)c(=O)n4C)cn1 [AZD0156]; conditions: max 3 µM
Procedure, shortened: as §1

[33] = compound: CCN(CCO)CCCOc1ccc2c(Nc3cc(CC(=O)Nc4cccc(F)c4)[nH]n3)ncnc2c1 [AZD2811]; conditions: max 1 µM
Procedure, shortened: as §1

[34] = compound: CC1=C(C(=CC=C1)Cl)NC(=O)C2=CN=C(S2)NC3=CC(=NC(=N3)C)N4CCN(CC4)CCO [Dasatinib]; conditions: max 2 µM
Procedure, shortened: as §1

[35] = compound: CC(=O)Nc1cccc(-n2c(=O)n(C3CC3)c(=O)c3c(Nc4ccc(I)cc4F)n(C)c(=O)c(C)c32)c1 [Trametinib]; conditions: max 1 µM
Procedure, shortened: as §1

Cell Line | IC50, cell viability 72 h [1] [µM] | IC50, cell viability 72 h [2] [µM] | IC50, cell viability 72 h [3] [µM] | IC50, cell viability 72 h [4] [µM] | IC50, cell viability 72 h [5] [µM] | IC50, cell viability 72 h [6] [µM] | IC50, cell viability 72 h [7] [µM] | IC50, cell viability 72 h [8] [µM] | IC50, cell viability 72 h [9] [µM] | IC50, cell viability 72 h [10] [µM] | IC50, cell viability 72 h [11] [µM] | IC50, cell viability 72 h [12] [µM] | IC50, cell viability 72 h [13] [µM] | IC50, cell viability 72 h [14] [µM] | IC50, cell viability 72 h [15] [µM] | IC50, cell viability 72 h [16] [µM] | IC50, cell viability 72 h [17] [µM] | IC50, cell viability 72 h [18] [µM] | IC50, cell viability 72 h [19] [µM] | IC50, cell viability 72 h [20] [µM] | IC50, cell viability 72 h [21] [µM] | IC50, cell viability 72 h [22] [µM] | IC50, cell viability 72 h [23] [µM] | IC50, cell viability 72 h [24] [µM] | IC50, cell viability 72 h [25] [µM] | IC50, cell viability 72 h [26] [µM] | IC50, cell viability 72 h [27] [µM] | IC50, cell viability 72 h [28] [µM] | IC50, cell viability 72 h [29] [µM] | IC50, cell viability 72 h [30] [µM] | IC50, cell viability 72 h [31] [µM] | IC50, cell viability 72 h [32] [µM] | IC50, cell viability 72 h [33] [µM] | IC50, cell viability 72 h [34] [µM] | IC50, cell viability 72 h [35] [µM]
SW1710 (Bladder Carcinoma) | > 10 | > 10 | > 10 | > 10 | > 10 | > 5 | > 0.001 | > 1 | > 10 | > 10 | > 20 | > 10 | 0.0151 | > 3 | > 0.3 | > 10 | > 1 | > 10 | > 10 | > 10 | > 10 | > 0.3 | > 1 | > 10 | > 1 | > 10 | > 10 | 0.0864 | > 0.3 | > 1 | > 1 | > 3 | > 1 | 0.19 | > 1
TGBC1TKB (Biliary Tract Carcinoma) | > 10 | > 10 | > 10 | > 10 | > 10 | > 5 | > 0.001 | > 1 | > 10 | > 10 | > 20 | > 10 | 0.969 | > 3 | > 0.3 | > 10 | > 1 | > 10 | > 10 | > 10 | > 10 | > 0.3 | > 1 | > 10 | > 1 | > 10 | > 10 | > 1 | > 0.3 | > 1 | > 1 | > 3 | > 1 | > 2 | > 1
WSU-NHL (B-Cell Non-Hodgkin's Lymphoma) | 0.543 | > 10 | 0.809 | 0.0736 | 0.998 | > 5 | > 0.001 | 0.0814 | 9.55 | 7.07 | 5.46 | > 10 | < 0.003 | 0.41 | 0.00525 | 0.0705 | 0.0642 | > 10 | > 10 | 1.28 | 4.52 | > 0.3 | > 1 | 0.397 | 0.0459 | 0.16 | 2.31 | 0.0152 | 0.00241 | 0.321 | 0.0142 | > 3 | 0.134 | 0.0126 | > 1
YAPC (Pancreatic Carcinoma) | > 10 | > 10 | > 10 | > 10 | > 10 | > 5 | > 0.001 | > 1 | > 10 | > 10 | > 20 | > 10 | > 3 | > 3 | 0.212 | > 10 | > 1 | > 10 | > 10 | > 10 | > 10 | > 0.3 | > 1 | > 10 | > 1 | > 10 | > 10 | 0.641 | 0.113 | > 1 | > 1 | > 3 | > 1 | > 2 | > 1
